Where a name gives a salt, the structure may show the parent alone.

In one test the target is T1, JAK2 tyrosine kinase (Homo sapiens, UniProt O60674).
T1 construct: purchased Carnabioscience Co
In words: Test 1: inhibitory activity to JAK2 tyrosine kinase (ELISA). The format is biochemical. The following applies: 25 μM ATP in substrate solution, 30° C. for 1 hour, n=2. The method, then: Test 1: Test for inhibitory activity to JAK2 and JAK3 tyrosine kinase 1. Preparation of Test Material
The test material was dissolved in dimethylsulfoxide (DMSO) to be 10 mM, and further diluted with DMSO to be 100-fold concentrations for measurement (1000, 300, 100, 30, 10, 3, 1, 0.3, 0.1, 0.03, 0.01 μM). In addition, solutions diluted with an assay buffer up to 20 times were used as solutions of the test material. As a negative control, a solution of DMSO diluted 20 times with an assay buffer was used. As the assay buffer, 15 mM Tris-Cl (pH 7.5), 0.01 v/v % Tween-20, and 1 mM dithiothreitol were used.
2. Measurement of the Activities of JAK2 and JAK3 Tyrosine Kinases
The activity was determined by ELISA. The solution of the test material (10 μl each; n=2) was placed in a streptavidine-coated 96 well plate (DELFIA Strip Plate 8×12 wells; Perkin Elmer), to which 20 μl each of substrate solution (625 nM biotin-labeled peptide substrate, 25 μM ATP, 25 mM MgCl2, 15 mM Tris-Cl (pH 7.5), 0.01 v/v % Tween-20, and 1 mM dithiothreitol), was added and stirred. Finally, 20 μl each of JAK2 tyrosine kinase (Carnabioscience Co.) (diluted to 0.75 nM with assay buffer) or JAK3 tyrosine kinase (Carnabioscience Co.) (diluted to 0.75 nM with assay buffer) was added, stirred and allowed to stand at 30° C. for 1 hour. The plate was washed 4 times with a washing buffer (50 mM Tris-Cl, pH 7.5, 150 mM NaCl, 0.02 v/v % Tween-20), and then a blocking buffer (0.1% Bovine Serum Albumin, 50 mM Tris-Cl, pH 7.5, 150 mM NaCl, 0.02 v/v % Tween-20)(150 μl each) was added for blocking at 30° C. for 30 minutes. Blocking buffer was removed, and there was added 100 μl each of horse radish peroxidase-labeled anti-phosphorylated tyrosin kinase antibody (BD Bioscience Co.) (diluted 10,000 times with blocking buffer). The plate was incubated at 30° C. for 30 minutes and then washed 4 times with a washing buffer, and 100 μl each of 3,3′,5,5′-tetramethylbenzidine (Sigma-Aldrich Co.) was added to develop color for 10 minutes. 0.1 M sulfuric acid (100 μl each) was added to stop the reaction. The absorbance was measured by means of a micro-plate reader (BIO-RAD; Model 3550) at 450 nm.
3. Analysis of the Results of the Measurement
The measured absorbance was subjected to a non-linear regression analysis by means of a SAS system (SAS Institute Inc.), and the concentration (IC50) of the test material which inhibited 50% of the activity of each tyrosine kinase was estimated.

Another test has as its target T2, JAK3 tyrosine kinase (Homo sapiens, UniProt P52333).
T2 construct: purchased Carnabioscience Co
T2 sequence (P52333 1-1124): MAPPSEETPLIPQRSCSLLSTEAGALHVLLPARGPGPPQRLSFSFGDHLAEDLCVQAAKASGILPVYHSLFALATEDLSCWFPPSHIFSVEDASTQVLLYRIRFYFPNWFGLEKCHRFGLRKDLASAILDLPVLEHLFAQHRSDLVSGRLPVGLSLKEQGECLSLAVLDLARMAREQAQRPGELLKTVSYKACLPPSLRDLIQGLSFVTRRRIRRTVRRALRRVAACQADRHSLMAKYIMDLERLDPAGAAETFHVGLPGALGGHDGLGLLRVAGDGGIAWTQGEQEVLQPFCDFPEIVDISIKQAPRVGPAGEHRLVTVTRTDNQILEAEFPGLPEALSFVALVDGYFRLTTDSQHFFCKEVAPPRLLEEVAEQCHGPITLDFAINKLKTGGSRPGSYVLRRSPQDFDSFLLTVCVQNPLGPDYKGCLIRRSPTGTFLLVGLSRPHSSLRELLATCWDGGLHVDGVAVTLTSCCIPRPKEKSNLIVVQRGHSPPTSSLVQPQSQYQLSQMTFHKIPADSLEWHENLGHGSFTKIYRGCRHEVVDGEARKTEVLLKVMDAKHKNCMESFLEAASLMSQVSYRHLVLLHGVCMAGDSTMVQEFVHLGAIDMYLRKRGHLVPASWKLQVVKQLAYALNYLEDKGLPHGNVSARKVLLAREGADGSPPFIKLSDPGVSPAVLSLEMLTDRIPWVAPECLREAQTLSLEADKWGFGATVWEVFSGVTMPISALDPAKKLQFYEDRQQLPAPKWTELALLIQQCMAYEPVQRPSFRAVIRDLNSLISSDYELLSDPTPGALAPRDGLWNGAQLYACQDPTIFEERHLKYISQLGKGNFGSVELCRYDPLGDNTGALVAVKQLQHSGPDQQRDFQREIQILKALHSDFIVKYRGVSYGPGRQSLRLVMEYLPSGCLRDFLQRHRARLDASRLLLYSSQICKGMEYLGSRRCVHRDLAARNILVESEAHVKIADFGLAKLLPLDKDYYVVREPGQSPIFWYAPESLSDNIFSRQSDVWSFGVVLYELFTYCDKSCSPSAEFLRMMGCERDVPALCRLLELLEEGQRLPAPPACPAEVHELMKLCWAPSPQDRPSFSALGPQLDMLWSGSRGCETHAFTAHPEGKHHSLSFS
In words: Test 1: inhibitory activity to JAK3 tyrosine kinase (ELISA). The format is biochemical. The settings on record: 25 μM ATP in substrate solution, 30° C. for 1 hour, n=2. The method, then: Test 1: Test for inhibitory activity to JAK2 and JAK3 tyrosine kinase 1. […] The test material was dissolved in dimethylsulfoxide (DMSO) to be 10 mM, and further diluted with DMSO to be 100-fold concentrations for measurement (1000, 300, 100, 30, 10, 3, 1, 0.3, 0.1, 0.03, 0.01 μM). In addition, solutions diluted with an assay buffer up to 20 times were used as solutions of the test material. As a negative control, a solution of DMSO diluted 20 times with an assay buffer was used. […] 2. Measurement of the Activities of JAK2 and JAK3 Tyrosine Kinases The activity was determined by ELISA. […] The absorbance was measured by means of a micro-plate reader (BIO-RAD; Model 3550) at 450 nm. 3. Analysis of the Results of the Measurement The measured absorbance was subjected to a non-linear regression analysis by means of a SAS system (SAS Institute Inc.), and the concentration (IC50) of the test material which inhibited 50% of the activity of each tyrosine kinase was estimated.

T1 sequence (O60674 whole entry): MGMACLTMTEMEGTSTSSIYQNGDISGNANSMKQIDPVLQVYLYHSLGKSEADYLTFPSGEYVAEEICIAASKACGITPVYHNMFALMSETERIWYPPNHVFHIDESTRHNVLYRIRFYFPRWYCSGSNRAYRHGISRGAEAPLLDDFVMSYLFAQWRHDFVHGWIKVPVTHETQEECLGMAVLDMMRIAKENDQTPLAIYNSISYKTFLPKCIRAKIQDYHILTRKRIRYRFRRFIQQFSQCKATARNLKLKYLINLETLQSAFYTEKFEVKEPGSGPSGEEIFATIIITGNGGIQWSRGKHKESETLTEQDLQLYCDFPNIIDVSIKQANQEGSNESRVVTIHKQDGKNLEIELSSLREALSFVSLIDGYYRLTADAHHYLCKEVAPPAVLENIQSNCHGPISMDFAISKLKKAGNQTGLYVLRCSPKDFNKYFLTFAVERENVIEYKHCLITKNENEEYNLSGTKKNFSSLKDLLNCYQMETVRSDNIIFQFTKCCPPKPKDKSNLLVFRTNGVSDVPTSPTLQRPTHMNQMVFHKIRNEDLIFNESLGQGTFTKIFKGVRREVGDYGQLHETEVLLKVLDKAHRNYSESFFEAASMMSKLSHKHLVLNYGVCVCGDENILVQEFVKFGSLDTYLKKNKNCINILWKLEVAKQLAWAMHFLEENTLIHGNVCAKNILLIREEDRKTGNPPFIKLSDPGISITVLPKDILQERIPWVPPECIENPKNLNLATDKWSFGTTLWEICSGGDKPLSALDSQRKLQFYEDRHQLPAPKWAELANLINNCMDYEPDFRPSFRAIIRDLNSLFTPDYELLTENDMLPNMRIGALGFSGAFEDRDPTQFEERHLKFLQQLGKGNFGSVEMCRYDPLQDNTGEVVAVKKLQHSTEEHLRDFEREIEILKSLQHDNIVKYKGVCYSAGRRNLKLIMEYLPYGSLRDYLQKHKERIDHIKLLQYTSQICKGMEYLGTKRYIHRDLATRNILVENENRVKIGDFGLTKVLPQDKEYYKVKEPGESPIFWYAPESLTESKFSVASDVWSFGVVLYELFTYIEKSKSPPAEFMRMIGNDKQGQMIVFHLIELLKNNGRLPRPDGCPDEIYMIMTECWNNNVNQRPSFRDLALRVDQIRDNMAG

One may read the IC50 as the concentration that inhibits the measured activity by half. In the case of `C[C@H](Nc1nc(Cl)cc(Nc2cnccn2)n1)c1ccc(F)cc1` [Example 9, (S)-6-Chloro-N^2-[1-(4-fluorophenyl)ethyl]-N^4-(pyrazin-2-yl)pyrimidine-2,4-diamine], the IC50 against JAK2 tyrosine kinase amounted to 16 nM; at JAK3 tyrosine kinase it was 360 nM.
In the same order, the values of `C[C@H](Nc1nc(Nc2cnccn2)cc(-c2ccc(S(C)(=O)=O)cc2)n1)c1ccc(F)cc1` [Example 10, (S)—N^2-[1-(4-Fluorophenyl)ethyl]-6-[4-(methylsulfonyl)phenyl]-N^4-(pyrazin-2-yl)pyrimidine-2,4-diamine hydrochloride] are 0.89 nM and 95 nM.
In the same order, the values of `C[C@H](Nc1nc(Nc2cnccn2)cc(-c2cn[nH]c2)n1)c1ccc(F)cc1` [Example 11, (S)—N^2-[1-(4-Fluorophenyl)ethyl]-N^4-(pyrazin-2-yl)-6-(1H-pyrazol-4-yl)pyrimidine-2,4-diamine hydrochloride] are 0.82 nM and 36 nM.
On the same counts, the results for `C[C@H](Nc1cc(OCCO)cc(Nc2cnccn2)n1)c1ccc(F)cc1` [Example 12, (S)-2-{2-[1-(4-Fluorophenyl)ethylamino]-6-(pyrazin-2-ylamino)pyridin-4-yloxy}ethanol hydrochloride] are 0.92 nM and 79 nM.
On to `C[C@H](Nc1nc(Nc2cnccn2)cc(-c2cccnc2)n1)c1ccc(F)cc1` [Example 13, (S)—N^2-[1-(4-Fluorophenyl)ethyl]-N^4-(pyrazin-2-yl)-6-(pyridin-3-yl)pyrimidine-2,4-diamine], for which the IC50 at JAK2 tyrosine kinase was 1.3 nM; on JAK3 tyrosine kinase, 71 nM.
On the same counts, the results for `C[C@H](Nc1nc(Nc2cnccn2)cc(-c2ccccn2)n1)c1ccc(F)cc1` [Example 14, (S)—N^2-[1-(4-Fluorophenyl)ethyl]-N^4-(pyrazin-2-yl)-6-(pyridin-2-yl)pyrimidine-2,4-diamine] are 1.9 nM and 120 nM.
On the same counts, the results for `C[C@H](Nc1nc(Nc2cnccn2)cc(-c2ccncc2)n1)c1ccc(F)cc1` [Example 15, (S)—N^2-[1-(4-Fluorophenyl)ethyl]-N^4-(pyrazin-2-yl)-6-(pyridin-4-yl)pyrimidine-2,4-diamine] are 1.3 nM and 72 nM.
For `C[C@H](Nc1nc(Nc2cnccn2)cc(N2CCCC2=O)n1)c1ccc(F)cc1` [Example 16, (S)-1-{2-[1-(4-Fluorophenyl)ethylamino]-6-(pyrazin-2-ylamino)pyrimidin-4-yl}pyrrolidin-2-one], the IC50 against JAK2 tyrosine kinase came out at 8 nM; on JAK3 tyrosine kinase it was 630 nM.
On the same counts, the results for `C[C@H](Nc1nc(Nc2cnccn2)cc(N2CC(=O)NC(=O)C2)n1)c1ccc(F)cc1` [Example 17, (S)-4-{2-[1-(4-Fluorophenyl)ethylamino]-6-(pyrazin-2-ylamino)pyrimidin-4-yl}piperazine-2,6-dione] are 4.4 nM and 340 nM.
On the same counts, the results for `C[C@H](Nc1nc(Nc2cnccn2)cc(N2CCCNC2=O)n1)c1ccc(F)cc1` [Example 18, (S)-1-{2-[1-(4-Fluorophenyl)ethylamino]-6-(pyrazin-2-ylamino)pyrimidin-4-yl}tetrahydropyrimidin-2(1H)-one] are 3 nM and 130 nM.
In the same order, the values of `C[C@H](Nc1nc(Nc2cnccn2)cc(N2CCCC2)n1)c1ccc(F)cc1` [Example 19, (S)—N^2-[1-(4-Fluorophenyl)ethyl]-N^4-(pyrazin-2-yl)-6-(pyrrolidin-1-yl)pyrimidine-2,4-diamine] are 2.6 nM and 59 nM.
For the compound `C[C@H](Nc1nc(Nc2cnccn2)cc(N2CCNC2=O)n1)c1ccc(F)cc1` [Example 21, (S)-1-{2-[1-(4-Fluorophenyl)ethylamino]-6-(pyrazin-2-ylamino)pyrimidin-4-yl}imidazolidin-2-one hydrochloride], the values for the half-inhibitory concentration (IC50) on JAK2 tyrosine kinase and at JAK3 tyrosine kinase were 8.7 nM and 950 nM, respectively.
On the same counts, the results for `C[C@H](Nc1nc(Nc2cnccn2)cc(-c2cnco2)n1)c1ccc(F)cc1` [Example 22, (S)—N^2-[1-(4-Fluorophenyl)ethyl]-6-(oxazol-5-yl)-N^4-(pyrazin-2-yl)pyrimidine-2,4-diamine hydrochloride] are 1.6 nM and 88 nM.
In the same order, the values of `COc1ccc(-c2cc(Nc3cnccn3)nc(N[C@@H](C)c3ccc(F)cc3)n2)cn1` [Example 23, (S)—N^2-[1-(4-Fluorophenyl)ethyl]-6-(6-methoxypyridin-3-yl)-N^4-(pyrazin-2-yl)pyrimidine-2,4-diamine hydrochloride] are 4.2 nM and 210 nM.
In the same order, the values of `C[C@H](Nc1nc(Nc2cnccn2)cc(-c2cc[nH]n2)n1)c1ccc(F)cc1` [Example 24, (S)—N^2-[1-(4-Fluorophenyl)ethyl]-N^4-(pyrazin-2-yl)-6-(1H-pyrazol-3-yl)pyrimidine-2,4-diamine hydrochloride] are 1.1 nM and 53 nM.
In the case of `C[C@H](Nc1nc(Nc2cnccn2)cc(-c2ccnc(O)c2)n1)c1ccc(F)cc1` [Example 25, (S)-4-{2-[1-(4-Fluorophenyl)ethylamino]-6-(pyrazin-2-ylamino)pyrimidin-4-yl}pyridin-2-ol], the concentration for half-maximal inhibition (IC50) is 0.97 nM on JAK2 tyrosine kinase and 100 nM at JAK3 tyrosine kinase.
On the same counts, the results for `C[C@H](Nc1nc(Nc2cnccn2)cc(-c2ccc(O)nc2)n1)c1ccc(F)cc1` [Example 26, (S)-5-{2-[1-(4-Fluorophenyl)ethylamino]-6-(pyrazin-2-ylamino)pyrimidin-4-yl}pyridin-2-ol] are 0.27 nM and 28 nM.
In the same order, the values of `C[C@H](Nc1cc(-c2cc[nH]n2)cc(Nc2cnccn2)n1)c1ccc(F)cc1` [Example 29, (S)—N^2-[1-(4-Fluorophenyl)ethyl]-N^6-(pyrazin-2-yl)-4-(1H-pyrazol-3-yl)pyridine-2,6-diamine] are 2 nM and 160 nM.

The record behind these values is patent US8586591B2, “Aminopyrazine derivative and medicine” (Nippon Shinyaku Co., Ltd., priority 2009, dated 2013).
